According to US20050074810A1, “Method for non-invasilvely determining the relative levels of two biological substances” (priority 2001, published 2005):
Like-named read-outs stand apart in the source and are kept apart here.

What was measured:
[1] = subdermal lactate 1.74 mM, ammonium 1.56 mM
Method: Experiments were performed in specially-designed iontophoresis diffusion cells (Laboratory Glass Apparatus, Berkeley, Calif., USA) as represented in FIG. 7.
The anodal and cathodal chambers contacted the outer surface of the skin and contained the receptor (collection) media, respectively, 80 mM Tris/TrisHCl and 25 mM Tris+34 mM Mops (both buffered to pH 7.4).
Dermatomed pig-ear skin was clamped between the two halves of the iontophoresis cell and each chamber was filled with the appropriate solution.
The sub-dermal chamber was filled with the “donor solution which was perfused continuously at 2-3 mL/hour by means of a peristaltic pump.
A current of 0.4 mA (0.5 mA/cm^2) was passed for a total of 5 hours between the Ag/AgCl electrodes which were inserted into the anodal and cathodal chambers.
Every hour, the entire anode and cathode solutions were withdrawn and the chambers were refilled with fresh buffer.

[2] = in vivo, 4 mA for 5 minutes, 4.5 cm^2, lithium nitrate electrolyte; cited from earlier work

SMILES	Deduced transport number (×100) ([1]; 3 h)	K for analyte/internal standard couple, internal standard Na^+ ([1]; 3 h)	Deduced transport number (×100) ([1]; 5 h)	K for analyte/internal standard couple, internal standard Na^+ ([1]; 5 h)	Concentration in the cathode chamber after current passage [2]
N [Ammonium, ammonium]	1.36 ± 0.09 ×100	1.71 ± 0.09	1.44 ± 0.03 ×100	1.71 ± 0.01	–
[K+] [K^+, potassium]	–	–	–	–	about 14 μEq/L
